In ChEMBL document CHEMBL1201862, “PubChem BioAssay data set” (2004):
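Method: 48-hour compound exposure of cells in 96-well plates, five concentrations, linear interpolation of endpoints. Abbreviation: GI50, concentration required for 50% inhibition of growth.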 Calls of active or inactive are those of the source. Cut-off read from the data, not from the text of the source: active = GI50 up to about 1.1 µM and inactive = higher.

How the values were obtained:
Assay in all cases: DTP human tumour cell line panel, 48 h
M14 = test system: M14
Hs-578T = test system: Hs-578T
A549 = test system: A549
OVCAR-8 = test system: OVCAR-8
HCC 2998 = test system: HCC 2998
NCI-H522 = test system: NCI-H522
SNB-19 = test system: SNB-19
PC-3 = test system: PC-3
RXF 393 = test system: RXF 393
IGROV-1 = test system: IGROV-1
Malme-3M = test system: Malme-3M
KM12 = test system: KM12
NCI/ADR-RES = test system: NCI/ADR-RES
UO-31 = test system: UO-31
SF-268 = test system: SF-268
SK-MEL-28 = test system: SK-MEL-28
SN12C = test system: SN12C
CCRF-CEM = test system: CCRF-CEM
U-251 = test system: U-251
K562 = test system: K562

Measured: GI50

O=C1CC(C(=O)N2CCCCC2)n2c(=O)n(-c3ccccc3)c(=O)n2C1 (configuration not stated)
inactive: M14 > 100 µM | Hs-578T > 100 µM | A549 > 100 µM | OVCAR-8 > 100 µM | HCC 2998 > 100 µM | NCI-H522 > 100 µM | SNB-19 > 100 µM | PC-3 > 100 µM | RXF 393 > 100 µM | IGROV-1 > 100 µM | Malme-3M > 100 µM | KM12 > 100 µM | NCI/ADR-RES > 100 µM | UO-31 > 100 µM | SF-268 > 100 µM

COc1ccc2c(c1)C(N)=C(c1ccccc1)C2=O
inactive: M14 > 100 µM | SK-MEL-28 > 100 µM | Hs-578T 11.4 µM | A549 64.6 µM | SN12C 99.3 µM | OVCAR-8 34.4 µM | HCC 2998 81.8 µM | NCI-H522 > 100 µM | SNB-19 24.4 µM | PC-3 > 100 µM | IGROV-1 63.5 µM | Malme-3M > 100 µM | KM12 36.6 µM | CCRF-CEM > 100 µM | NCI/ADR-RES 36.6 µM | U-251 94.4 µM | SF-268 27 µM

CCOC(=O)c1c(Br)c(-c2ccc([N+](=O)[O-])cc2)c(Br)n1C
inactive: M14 > 10 µM | SK-MEL-28 > 10 µM | Hs-578T 5.06 µM | A549 > 10 µM | SN12C 9.06 µM | OVCAR-8 > 10 µM | HCC 2998 > 10 µM | NCI-H522 > 10 µM | SNB-19 > 10 µM | PC-3 > 10 µM | IGROV-1 > 10 µM | Malme-3M > 10 µM | KM12 > 10 µM | CCRF-CEM > 10 µM | NCI/ADR-RES > 10 µM | U-251 > 10 µM | UO-31 9.16 µM | K562 > 10 µM | SF-268 > 10 µM

O=C(O)CN(CC(=O)O)Cc1ccn(-c2cccc(-n3ccc(CN(CC(=O)O)CC(=O)O)n3)n2)n1
inactive: M14 > 100 µM | SK-MEL-28 > 100 µM | Hs-578T > 100 µM | A549 17.4 µM | SN12C > 100 µM | OVCAR-8 > 100 µM | HCC 2998 > 100 µM | NCI-H522 > 100 µM | SNB-19 > 100 µM | PC-3 > 100 µM | RXF 393 > 100 µM | IGROV-1 > 100 µM | Malme-3M > 100 µM | KM12 > 100 µM | NCI/ADR-RES > 100 µM | U-251 21.1 µM | UO-31 93.8 µM | SF-268 > 100 µM

Nc1nc(N)c2c(n1)NC(c1ccccc1)CC(/C=C/c1ccc(Cl)cc1)=N2 (configuration not stated)
inactive: M14 11.6 µM | SK-MEL-28 13.5 µM | Hs-578T 2.95 µM | A549 12.2 µM | SN12C 8.89 µM | OVCAR-8 5.28 µM | NCI-H522 1.76 µM | SNB-19 12.8 µM | PC-3 6.59 µM | RXF 393 3.62 µM | IGROV-1 2.72 µM | Malme-3M 13.5 µM | KM12 3.52 µM | CCRF-CEM 4.84 µM | NCI/ADR-RES 3.15 µM | U-251 5.87 µM | UO-31 9.12 µM | K562 2.65 µM | SF-268 15.3 µM

O=C1/C(=C/c2ccc([N+](=O)[O-])cc2)CCCc2ccccc21
inactive: M14 > 100 µM | SK-MEL-28 > 100 µM | Hs-578T 25.8 µM | A549 > 100 µM | SN12C > 100 µM | OVCAR-8 > 100 µM | HCC 2998 > 100 µM | NCI-H522 > 100 µM | SNB-19 32.1 µM | PC-3 > 100 µM | IGROV-1 > 100 µM | Malme-3M > 100 µM | KM12 > 100 µM | CCRF-CEM > 100 µM | NCI/ADR-RES > 100 µM | U-251 > 100 µM | UO-31 > 100 µM | K562 > 100 µM | SF-268 30.4 µM
